According to patent US20050250090A1, “Assay systems and methods for detecting molecules that interact with SK2 channels” (priority 2003, published 2005):
Bridge positions count the residues as written; N and C are the ends. Peptide text beside a SMILES is read from it.

Target: hSK2A^+ (Homo sapiens, UniProt Q9H2S1, DUP58-58)
Assay: Membrane potential sensitive dye fluorescence assay (FLIPR384) in tsA201 cells stably expressing SK2
Format: cell-based
Details: for Hill coefficient (nH): inhibition of ATP/Tg induced decrease in fluorescence, FIG. 9; for effect on the fluorescence signals (responses to ATP/Tg and Cs+): 10 minutes incubation
Method: These cells were plated in a black optical bottom 384 well assay plate at a density of 8×10^6 cells/plate. […] After a 30-minute incubation in the voltage sensitive dye, the cell plate was transferred to a fluorescence plate reader (FLIPR384™, Molecular Devices), and ten baseline fluorescence readings were obtained.
Intracellular Ca^2+ levels of the cells were raised by addition of ATP (200 μM final concentration) and thapsigargin (1 μM final concentration). […] In FIG. 8, time is represented in seconds on the X-axis, and fluorescence is represented in au on the Y-axis. ATP/Tg addition is indicated at time 1, and CsCl addition is indicated at time II.
The magnitude of the ATP/Tg induced decrease in fluorescence was measured in the presence of each of a panel of known SK2 inhibitors. […]

Chain of hSK2A^+ (Q9H2S1 with tags, fused parts or gaps DUP58-58): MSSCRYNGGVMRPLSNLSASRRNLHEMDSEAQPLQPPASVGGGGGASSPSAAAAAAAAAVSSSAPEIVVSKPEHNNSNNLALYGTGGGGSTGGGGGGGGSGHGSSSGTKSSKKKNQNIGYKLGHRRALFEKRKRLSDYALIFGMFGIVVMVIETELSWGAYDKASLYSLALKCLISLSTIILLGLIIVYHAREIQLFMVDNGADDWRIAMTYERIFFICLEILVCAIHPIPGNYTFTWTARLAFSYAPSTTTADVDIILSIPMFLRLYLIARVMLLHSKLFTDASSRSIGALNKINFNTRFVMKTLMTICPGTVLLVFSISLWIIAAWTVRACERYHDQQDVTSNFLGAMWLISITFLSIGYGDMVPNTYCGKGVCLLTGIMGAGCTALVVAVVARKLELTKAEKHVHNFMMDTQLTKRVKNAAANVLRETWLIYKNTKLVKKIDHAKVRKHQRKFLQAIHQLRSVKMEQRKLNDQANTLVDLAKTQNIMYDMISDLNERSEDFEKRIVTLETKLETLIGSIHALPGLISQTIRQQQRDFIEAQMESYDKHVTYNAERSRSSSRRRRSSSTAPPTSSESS

| Compound | Hill coefficient (nH) | effect on the fluorescence signals (responses to ATP/Tg and Cs+) (tested at 833 nM) | other results |
| --- | --- | --- | --- |
| C=C[C@H]1C[N@@]2CC[C@H]1C[C@@H]2[C@@H](O)c1ccnc2ccc(OC)cc12 [quinidine] | 0.6 | – | – |
| α-dendrotoxin (QPRRKLCILHRNPGRCYDKIPAFYYNQKKKQCERFDWSGCGGNSNRFKTIEECRRTCIG) | – | no effect | – |
| CC(N/C(=N\C#N)Nc1ccncc1)C(C)(C)C (centres unmarked) [pinacidil] | – | – | effect on the fluorescence signals (responses to ATP/Tg and Cs+) (tested at 286 μM): no effect |
| iberiotoxin (QFTDVDCSVSKECWSVCKDLFGVDRGKCMGKKCRCYQ) [toxin isolated from Mesobuthus tamulus] | – | no effect | – |
| C[N+]1(C)CCc2cc3c(cc2[C@H]1[C@@H]1OC(=O)c2c1ccc1c2OCO1)OCO3.[Br-] [bicuculline methobromide] | 1 | – | – |
| O=c1[nH]c2cc(C(F)(F)F)ccc2n1-c1cc(C(F)(F)F)ccc1O [NS1619] | 2 | – | – |
| noxiustoxin (TIINVKCTSPKQCSKPCKELYGSSAGAKCMNGKCKCYNN) | – | no effect | – |
| CC[C@H](C)[C@@H]1NC(=O)[C@@H]2CSSC[C@H](NC(=O)[C@H](Cc3ccccc3)NC(=O)[C@H](C)N)C(=O)N[C@@H](CC(N)=O)C(=O)N[C@@H](CC(C)C)C(=O)N[C@@H](CCCNC(=N)N)C(=O)N[C@@H](CCSC)C(=O)N[C@H]3CSSC[C@H](NC(=O)[C@H](CCCCN)NC(=O)[C@H](CC(=O)O)NC(=O)CNC1=O)C(=O)N[C@@H](CCC(=O)O)C(=O)N[C@H](C(=O)N[C@H](C(=O)N[C@@H](CCCCN)C(=O)N[C@@H](Cc1c[nH]cn1)C(N)=O)C(C)C)CSSC[C@H](NC(=O)[C@H](CO)NC(=O)[C@H](CC(C)C)NC(=O)[C@H](CCC(N)=O)NC3=O)C(=O)N[C@@H](CCCNC(=N)N)C(=O)N[C@@H](CO)C(=O)N[C@@H](CC(C)C)C(=O)NCC(=O)N[C@@H](CC(C)C)C(=O)N[C@@H](CC(C)C)C(=O)NCC(=O)N[C@@H](CCCCN)C(=O)N2 [scyllatoxin] (H-AFCNLRMCQLSCRSLGLLGKCIGDKCECVKH-NH2; disulfide 3-21, 8-26, 12-28) | – | – | IC50: 1.1 nM |
